In patent US20050043331A1, “Substituted 3-(2,5-disubstituted)pyridyl-4-aryl pyrroles for treating inflammatory diseases” (priority 2002, published 2005):
Where two headings read alike, the source gives them in different places.

Tests used:
P38 = P38 (Homo sapiens, UniProt Q16539); test: P38 cell, 1 μM LJ; assay type: cell-based; design: unit not given here
TNF-α [1] = test: In-vitro whole cell assay for TNF-α inhibition (LPS-stimulated PBMC, ELISA); assay type: cell-based; details: TNF-α by ELISA
Protocol: Freshly obtained venous blood was anticoagulated with heparin, diluted with an equal volume of phosphate buffered saline (“PBS”) and placed in a sterile tube or other container. Aliquots (30 mL) of this mixture were transferred to centrifuge tubes, which were underlaid with Ficoll-Hypaque (15 mL). The prepared tubes were centrifuged at 400×g, without braking, for 30 min at room temperature. Approximately ½ to ⅔ of the platelet layer above the mononuclear cell band was removed with a pipette. The majority of the mononuclear cell layer was carefully removed using a pipette and these PBMC's were diluted with PBS and spun at 600×g for 15 min. The resulting PBMC's were washed with another portion of PBS and spun at 400×g for 10 min at room temperature. The recovered pellets were diluted in low endotoxin RPMI/1% FCS culture medium, and gave a cell concentration of 0.5-2.0×10^6 PMBC/ mL. A small volume of the suspension was removed for counting on a hemocytometer and the remaining preparation was centrifuged at 200×g for 15 min at room temperature. The recovered pelleted PMBC's were resuspended in RPMI/1% FCS to a concentration of 1.67×10^6/mL.
To run the assay, the PBMC suspension (180 μL) was transferred to duplicate wells of a 96-well flat-bottom microtiter plate and incubated for 1 h at 37° C. A solution of test compound (10 μL: prepared at 20× the desired final concentration) was added to each well and the plate was incubated for 1 h at 37° C. A solution (10 μL) of LPS in RPMI/1% FCS (200 ng/mL) was added and the wells were incubated overnight at 37° C. The supernate (100 μL) was removed from each well and diluted with RPMI/1% FCS (400 μL). The samples were analyzed for TNF-α using a commercial ELISA kit (Genzyme).

TNF-α [2] = test: In vivo rodent assay for inhibition of LPS-induced TNF-α production; design: species or system Mice (BALB/cJ females); details: Mus musculus, po, 10 mg/kg oral
Protocol: Mice (BALB/cJ females, Jackson Laboratories) or rats (Lewis males, Charles River) were fasted for 30 min. The animals were dosed orally on a mg/kg basis at a range of times prior to being injected intraperitoneally with LPS at 1 mg/kg and returned to their cages for 1 h. Animals were anesthetized by CO2, exsanguinated by cardiac puncture and whole blood collected (0.1-0.7 mL). The blood was allowed to clot and serum was transferred to a centrifuge tube. This sample was centrifuged, and serum was collected, aliquoted and frozen at −80° C. Samples were tested by commercial ELISA's for TNF-α (Endogen for mouse TNF-α and Biosource for rat TNF-α).

[3] = 0.5 h, 0.5 h, read-out: Mouse 10 mg/kg % inhib 0.5 h
[4] = 2 h, 2 h, read-out: Mouse 10 mg/kg % inhib 2 h

Chain of P38 (Q16539 whole entry): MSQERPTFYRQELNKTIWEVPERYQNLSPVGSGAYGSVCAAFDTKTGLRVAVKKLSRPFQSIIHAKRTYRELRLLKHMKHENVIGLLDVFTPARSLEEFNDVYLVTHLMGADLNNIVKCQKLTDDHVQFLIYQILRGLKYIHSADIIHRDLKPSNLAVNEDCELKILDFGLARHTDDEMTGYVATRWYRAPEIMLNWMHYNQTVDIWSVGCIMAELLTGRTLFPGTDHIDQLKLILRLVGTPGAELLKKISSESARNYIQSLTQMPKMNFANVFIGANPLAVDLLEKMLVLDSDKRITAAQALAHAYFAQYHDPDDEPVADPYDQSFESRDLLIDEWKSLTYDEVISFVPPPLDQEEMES

SMILES | P38 cell 1 μM LJ (P38) | IC50 (TNF-α [1]) | inhibition in vivo at 10 mg/kg (TNF-α [2]; [3]) | inhibition in vivo at 10 mg/kg (TNF-α [2]; [4])
CCCNC(=O)c1c(-c2ccc(F)cc2)c(-c2ccncc2)c(N2CCNCC2)n1C [Cpd 88] | 7 | 10000 nM | – | –
CCn1cc(-c2ccncc2)c(-c2ccc(F)cc2)c1C(=O)OC [Cpd 85] | 4 | 108 nM | 53% | –
CC(C)C(C)NC(=O)c1c(-c2ccc(F)cc2)c(-c2ccncc2)c(N2CCNCC2)n1C (stereo not shown) [Cpd 90] | 15 | – | – | –
Fc1ccc(-c2c[nH]c(CN3CCc4ccccc4C3)c2-c2ccncc2)cc1 [Cpd 72] | 32 | 40 nM | 63% | –
CNC(=O)c1c(-c2ccc(F)cc2)c(-c2ccncc2)c(Br)n1C [Cpd 84] | 11 | 543 nM | 53% | –
COC(=O)c1c(-c2ccc(F)cc2)c(-c2ccncc2)c(N2CCN(C(=O)OC(C)(C)C)CC2)n1C [Cpd 8a] | 28 | 4260 nM | – | –
COC(=O)c1c(-c2ccc(F)cc2)c(-c2ccncc2)c(N=C(c2ccccc2)c2ccccc2)n1C [Cpd 98] | −2 | 52 nM | -49% | –
CCOC(=O)c1[nH]cc(-c2ccncc2)c1-c1ccc(C)cc1 [Cpd 75] | 42 | 136 nM | – | –
CC(=O)c1c(-c2ccc(F)cc2)c(-c2ccncc2)c(N2CCN(C(C)=O)CC2)n1C [Cpd 92] | 6 | 43 nM | 61% | 28%
CN(C)C(=O)c1c(-c2ccc(F)cc2)c(-c2ccncc2)c(Br)n1C [Cpd 97] | 1 | 301 nM | -41% | –
CN(Cc1ccccc1)Cc1[nH]cc(-c2ccc(F)cc2)c1-c1ccncc1 [Cpd 73] | 78 | 91 nM | 37% | –
Cn1c(Br)c(-c2ccncc2)c(-c2ccc(F)cc2)c1C(=O)OC(C)(C)C [Cpd 82] | 8 | 1890 nM | -7% | –
CCOC(=O)c1c(-c2ccc(F)cc2)c(-c2ccncc2)cn1C [Cpd 86] | −2 | 125 nM | – | –
CCOC(=O)c1c(-c2ccc(F)cc2)c(-c2ccncc2)c(Br)n1C [Cpd 87] | 4 | 86 nM | – | –
CCOC(=O)c1c(-c2ccc(Br)cc2)c(-c2ccncc2)cn1C [Cpd 77] | 62 | 211 nM | – | –
COC(=O)c1c(-c2ccc(F)cc2)c(-c2ccncc2)cn1CCN1CCOCC1 [Cpd 60] | 1 | 10000 nM | – | –
CC(=O)c1c(-c2ccc(F)cc2)c(-c2ccncc2)c(N2CCN(C)CC2)n1C [Cpd 178] | – | 370 nM | – | 40%
COC(=O)c1c(-c2ccncc2)c(-c2ccc(F)cc2)cn1C [Cpd 141] | – | 55 nM | -56% | –
CCOC(=O)N1CCN(c2c(-c3ccncc3)c(-c3ccc(F)cc3)c(C(=O)OC)n2C)CC1 [Cpd 179] | – | 30 nM | – | 8%
COC(=O)c1c(-c2ccncc2)c(-c2ccc(F)cc2)c(Br)n1C [Cpd 43, 5-Bromo-4-(4-fluorophenyl)-1-methyl-3-(4-pyridinyl)-1H-pyrrole-2-carboxylic acid methyl ester] | – | 180 nM | -6% | –

SMILES | P38 cell 1 μM LJ (P38) | IC50 (TNF-α [1]) | inhibition in vivo at 10 mg/kg (TNF-α [2]; [3]) | inhibition in vivo at 10 mg/kg (TNF-α [2]; [4])
CN(CCN1CCOCC1)c1c(-c2ccncc2)c(-c2ccc(F)cc2)cn1C [Cpd 173] | – | 117 nM | 65% | -17%
CCCc1c(-c2ccnc(SC)n2)c(-c2ccc(F)cc2)cn1CCCN(C)C [Cpd 48] | – | 148 nM | -37% | –
CC(=O)N1CCN(c2c(-c3ccncc3)c(-c3ccc(F)cc3)c(C#N)n2C)CC1 [Cpd 182] | – | 154 nM | – | 81%
C=CC#Cc1c(-c2ccc(F)cc2)c(-c2ccncc2)c(C(=O)OC)n1C [Cpd 176] | – | 34 nM | – | -20%
CCN1C(=O)c2c(-c3ccncc3)c(-c3ccc(F)cc3)cn2C1=O [Cpd 31, 2-Ethyl-6-(4-fluorophenyl)-7-(4-pyridinyl)-1H-pyrrolo[1,2-c]imidazole-1,3(2H)-dione] | – | 401 nM | 72% | –
Cn1cc(-c2ccncc2)c(-c2ccc(F)cc2)c1CNC(=O)Nc1ccccc1 [Cpd 185] | – | 27 nM | – | 82%
Cn1cc(-c2ccncc2)c(-c2ccc(F)cc2)c1-c1ncc(-c2ccccc2)o1 [Cpd 36, 4-[4-(4-Fluorophenyl)-1-methyl-5-(5-phenyl-2-oxazolyl)-1H-pyrrol-3-yl]pyridine] | – | 1030 nM | 81% | 35%
COC(=O)c1c(-c2ccc(F)cc2)c(-c2ccncc2)c(C#CCN2CCN(C)CC2)n1C [Cpd 184] | – | 7.7 nM | – | 57%
Cn1c(C(=O)C2CC2)c(-c2ccc(F)cc2)c(-c2ccncc2)c1N1CCN(C(=O)C2CC2)CC1 [Cpd 107] | 11 | 36 nM | – | –
CN(CCO)Cc1[nH]cc(-c2ccc(F)cc2)c1-c1ccncc1 [Cpd 180] | – | 3 nM | – | -8%
COC(=O)C1Cn2cc(-c3ccncc3)c(-c3ccc(F)cc3)c2C1=O (stereo not shown) [Cpd 21, 7-(4-Fluorophenyl)-2,3-dihydro-1-oxo-6-(4-pyridinyl)-1H-pyrrolizine-2-carboxylic acid methyl ester] | – | 29 nM | 44.7% | –
CC(C)NC(=O)c1c(-c2ccc(F)cc2)c(-c2ccncc2)c(N2CCNCC2)n1C [Cpd 89] | 22 | – | – | –
CN1CCN(c2c(-c3ccncc3)c(-c3ccc(F)cc3)c(C#N)n2C)CC1 [Cpd 183] | – | 80 nM | – | 47%
COC(=O)c1c(-c2ccc(F)cc2)c(-c2ccncc2)c(/N=C/N(C)C)n1C [Cpd 15] | – | 5 nM | 6% | -21%
COC(=O)c1c(-c2ccc(F)cc2)c(-c2ccncc2)c(N2CCN(C3CCCC3)CC2)n1C [Cpd 125] | – | 139 nM | 48.6% | –
COC(=O)c1c(-c2ccc(F)cc2)c(-c2ccncc2)c(NCCN2CCCCC2)n1C [Cpd 115] | – | 92 nM | -36% | –
Cn1c(C#N)c(-c2ccc(F)cc2)c(-c2ccncc2)c1N1CCNCC1 [Cpd 186] | – | 18 nM | – | 67%
O=C1CCCn2cc(-c3ccncc3)c(-c3ccc(F)cc3)c21 [Cpd 134] | – | 150 nM | 61% | 31%
COc1ccc(CNCc2[nH]cc(-c3ccncc3)c2-c2ccc(F)cc2)cc1 [Cpd 138] | – | 190 nM | -30% | –
COC(=O)c1c(-c2ccc(F)cc2)c(-c2ccncc2)c(Nc2ccc(N3CCOCC3)cc2)n1C [Cpd 159] | – | 1560 nM | 29% | –
